Experimental data published in US20140194480A1, “METHODS FOR THE CONTROL OF TERMITES AND ANTS” (SYNGENTA PARTICIPATIONS AG, priority 2011, published 2014).

Experiments:
termites [1] = experiment: Transfer test: termites exposed 6 h on treated sand, then combined with unexposed termites; total termite mortality; type: in vivo; settings: for % mortality: Table 3; for % mortality of the total termites: Table 4
Protocol: Washed sand is treated with the experimental compound in a volatile solvent, so as to deliver the desired concentration w/w in the solvent free sand. Once the solvent has evaporated, the sand is thoroughly mixed and made up with deionised water to 3% w/w moisture content. Ca. 5 g of the so treated sand is placed in the base of a 9 cm Petri dish. 20 worker termites are placed on the treated sand and placed in a dark room under similar temperature to their culture colony. After 6 hours the termites are assessed for mortality and carefully removed from the treated sand, before being placed in a similar Petri dish of untreated sand (3% moisture content). 20 further termites are taken from the same colony and placed in the Petri dish with the exposed termites, along with a section of filter paper ca. 2 cm^2. The lid of the Petri dish is replaced and sealed with laboratory film. The so constructed Petri dish arena are placed in a dark room with a similar temperature to the culture colony. Assessments of total termite mortality, symptomology and behaviour are made at daily intervals.

termites [2] = experiment: Treated sand column test: termite mortality and distance tunnelled into treated sand; type: in vivo
Protocol: Washed sand was treated with the experimental compound diluted in acetone. The acetone was allowed to evaporate, and the sand thoroughly mixed. De-ionised water was added to the treated sand to give a final water content of 3%. The treated sand was then packed into a glass tube with an internal diameter of 13.2 mm, to produce a 4 cm column. This was held in place at one end with a section of 7% agar. Sections of filter paper were placed at both ends of the column. Approximately 25 mixed age termites were added to the end of the tube containing the agar. Both ends were then sealed with rubber bungs. Assessments were made 1, 2, 3, 7 and 21 days after infestation, measuring termite mortality and the distance tunnelled into the treated sand.

`Cc1cc(C2=NOC(c3cc(Cl)cc(Cl)c3)(C(F)(F)F)C2)ccc1C(=O)NC1(C)CSC1` (racemic) [Compound 1] was tested, and the “% mortality” value (termites [1]; 10 ppm, 2 days after application) was 0%, the “% mortality” value (termites [1]; 10 ppm, 3 days after application) was 14% and the “% mortality” value (termites [1]; 10 ppm, 6 days after application) was 30%. The “% mortality” value (termites [1]; 10 ppm, 7 days after application) was 38%, the “% mortality” value (termites [1]; 10 ppm, 8 days after application) was 43% and the “% mortality” value (termites [1]; 10 ppm, 9 days after application) was 50%. For the same compound, the “% mortality” value (termites [1]; 10 ppm, 10 days after application) was 67%, the “% mortality” value (termites [1]; 10 ppm, 13 days after application) was 78% and the “% mortality” value (termites [1]; 10 ppm, 14 days after application) was 83%. The “% mortality” value (termites [1]; 10 ppm, 15 days after application) was 87%, the “% mortality” value (termites [1]; 10 ppm, 16 days after application) was 88% and the “% mortality” value (termites [1]; 10 ppm, 17 days after application) was 92%. For the same compound, the “% mortality of the total termites” value (termites [1]; 2.5 ppm, 0 days after treatment) was 0%, the “% mortality of the total termites” value (termites [1]; 2.5 ppm, 1 day after treatment) was 0% and the “% mortality of the total termites” value (termites [1]; 2.5 ppm, 2 days after treatment) was 0.5%. For the same compound, the “% mortality of the total termites” value (termites [1]; 2.5 ppm, 3 days after treatment) was 0.5%, the “% mortality of the total termites” value (termites [1]; 2.5 ppm, 6 days after treatment) was 0.5% and the “% mortality of the total termites” value (termites [1]; 2.5 ppm, 7 days after treatment) was 1%. The “% mortality of the total termites” value (termites [1]; 2.5 ppm, 8 days after treatment) was 1%, the “% mortality of the total termites” value (termites [1]; 2.5 ppm, 9 days after treatment) was 1.5% and the “% mortality of the total termites” value (termites [1]; 2.5 ppm, 14 days after treatment) was 1.5%. For the same compound, the “% mortality of the total termites” value (termites [1]; 5 ppm, 0 days after treatment) was 0%, the “% mortality of the total termites” value (termites [1]; 5 ppm, 1 day after treatment) was 0.5% and the “% mortality of the total termites” value (termites [1]; 5 ppm, 2 days after treatment) was 1.5%. The “% mortality of the total termites” value (termites [1]; 5 ppm, 3 days after treatment) was 1.5%, the “% mortality of the total termites” value (termites [1]; 5 ppm, 6 days after treatment) was 1.5% and the “% mortality of the total termites” value (termites [1]; 5 ppm, 7 days after treatment) was 6%. For the same compound, the “% mortality of the total termites” value (termites [1]; 5 ppm, 8 days after treatment) was 6%, the “% mortality of the total termites” value (termites [1]; 5 ppm, 9 days after treatment) was 7% and the “% mortality of the total termites” value (termites [1]; 5 ppm, 14 days after treatment) was 7.5%. The “% mortality of the total termites” value (termites [1]; 10 ppm, 0 days after treatment) was 0%, the “% mortality of the total termites” value (termites [1]; 10 ppm, 1 day after treatment) was 19.5% and the “% mortality of the total termites” value (termites [1]; 10 ppm, 2 days after treatment) was 23.5%. The “% mortality of the total termites” value (termites [1]; 10 ppm, 3 days after treatment) was 27.5%, the “% mortality of the total termites” value (termites [1]; 10 ppm, 6 days after treatment) was 32.5% and the “% mortality of the total termites” value (termites [1]; 10 ppm, 7 days after treatment) was 33.5%. The “% mortality of the total termites” value (termites [1]; 10 ppm, 8 days after treatment) was 35%, the “% mortality of the total termites” value (termites [1]; 10 ppm, 9 days after treatment) was 35.5% and the “% mortality of the total termites” value (termites [1]; 10 ppm, 14 days after treatment) was 37.5%.

In the case of `N#Cc1nn(-c2c(Cl)cc(C(F)(F)F)cc2Cl)c(N)c1[S+]([O-])C(F)(F)F` (stereo not drawn) [Fipronil], the Mortality/average % (termites [2]; Table 1, 0.01 ppm in sand, 1 DAA) is reported as 7%, the Mortality/average % (termites [2]; Table 1, 0.01 ppm in sand, 2 DAA) is reported as 7% and the Mortality/average % (termites [2]; Table 1, 0.01 ppm in sand, 3 DAA) is reported as 7%. For the same compound, the Mortality/average % (termites [2]; Table 1, 0.01 ppm in sand, 7 DAA) was 7%, the Mortality/average % (termites [2]; Table 1, 0.01 ppm in sand, 21 DAA) was 52% and the Mortality/average % (termites [2]; Table 1, 0.1 ppm in sand, 1 DAA) was 0%. It also gave a Mortality/average % (termites [2]; Table 1, 0.1 ppm in sand, 2 DAA) of 28%, a Mortality/average % (termites [2]; Table 1, 0.1 ppm in sand, 3 DAA) of 33% and a Mortality/average % (termites [2]; Table 1, 0.1 ppm in sand, 7 DAA) of 77%. For the same compound, the Mortality/average % (termites [2]; Table 1, 0.1 ppm in sand, 21 DAA) was 100%, the Mortality/average % (termites [2]; Table 2, 0.01 ppm in sand, 1 DAA) was 27% and the Mortality/average % (termites [2]; Table 2, 0.01 ppm in sand, 2 DAA) was 40%. The Mortality/average % (termites [2]; Table 2, 0.01 ppm in sand, 3 DAA) was 40%, the Mortality/average % (termites [2]; Table 2, 0.01 ppm in sand, 7 DAA) was 40% and the Mortality/average % (termites [2]; Table 2, 0.01 ppm in sand, 21 DAA) was 40%. For the same compound, the Mortality/average % (termites [2]; Table 2, 0.1 ppm in sand, 1 DAA) was 27%, the Mortality/average % (termites [2]; Table 2, 0.1 ppm in sand, 2 DAA) was 30% and the Mortality/average % (termites [2]; Table 2, 0.1 ppm in sand, 3 DAA) was 40%. For the same compound, the Mortality/average % (termites [2]; Table 2, 0.1 ppm in sand, 7 DAA) was 40%, the Mortality/average % (termites [2]; Table 2, 0.1 ppm in sand, 21 DAA) was 40% and the “repellency (in words)” value (termites [2]; fipronil rates tested (0.1 and 0.01 ppm)) was “not repellent”.
